Test results from ChEMBL document CHEMBL5291721, “A preclinical secondary pharmacology resource illuminates target-adverse drug reaction associations of marketed drugs” (Nat Commun, 2023).

Target: T1, Estrogen receptor (Homo sapiens, UniProt P03372)
T1 sequence (P03372 whole entry): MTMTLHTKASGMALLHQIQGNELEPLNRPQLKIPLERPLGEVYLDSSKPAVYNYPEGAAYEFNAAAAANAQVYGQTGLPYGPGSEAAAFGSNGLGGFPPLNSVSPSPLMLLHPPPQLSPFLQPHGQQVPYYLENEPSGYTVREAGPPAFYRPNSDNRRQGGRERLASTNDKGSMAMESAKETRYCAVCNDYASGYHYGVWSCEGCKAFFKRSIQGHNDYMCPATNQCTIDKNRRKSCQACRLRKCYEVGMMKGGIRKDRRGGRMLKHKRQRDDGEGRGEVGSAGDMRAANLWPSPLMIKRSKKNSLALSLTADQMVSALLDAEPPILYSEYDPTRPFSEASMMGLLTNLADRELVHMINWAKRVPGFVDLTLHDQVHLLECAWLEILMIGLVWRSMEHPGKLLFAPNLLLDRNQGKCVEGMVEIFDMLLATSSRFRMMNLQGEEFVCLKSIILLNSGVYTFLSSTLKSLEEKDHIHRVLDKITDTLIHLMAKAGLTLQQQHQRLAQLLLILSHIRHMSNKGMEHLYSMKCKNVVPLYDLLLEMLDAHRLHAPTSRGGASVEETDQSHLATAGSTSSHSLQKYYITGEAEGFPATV
Note: assay procedure not described here.

| AC50 [µM] | SMILES |
| --- | --- |
| > 30 | CN1C(C(=O)Nc2ccccn2)=C(O)c2sc(Cl)cc2S1(=O)=O [LORNOXICAM] |
| > 30 | COc1ccccc1OCC(O)CN1CCN(CC(=O)Nc2c(C)cccc2C)CC1 (stereo not drawn) [RANOLAZINE] |
| > 10 | CN(C)/N=N/c1[nH]cnc1C(N)=O [DACARBAZINE] |
| > 10 | Nc1ccn([C@H]2CC[C@@H](CO)O2)c(=O)n1 [ZALCITABINE] |
| > 30 | CCCCN1C[C@H](O)[C@@H](O)[C@H](O)[C@H]1CO |
| > 30 | O=C1Nc2ccc(Cl)cc2[C@@](C#CC2CC2)(C(F)(F)F)O1 [EFAVIRENZ] |
| > 30 | COc1cc2nc(N(C)CCCNC(=O)C3CCCO3)nc(N)c2cc1OC (stereo not drawn) [ALFUZOSIN] |

| SMILES | AC50 [µM] |
| --- | --- |
| C[N+]1(C)CCC(OC(=O)C(O)(c2ccccc2)C2CCCC2)C1 (stereo not drawn) [GLYCOPYRRONIUM BROMIDE] | > 30 |
| COc1cc(NC(C)CCCN)c2ncccc2c1 (stereo not drawn) [PRIMAQUINE] | 6.7 |
| CC[C@H]1[C@@H](O)[C@@H]2[C@H](CC[C@]3(C)[C@@H]([C@H](C)CCC(=O)O)CC[C@@H]23)[C@@]2(C)CC[C@@H](O)C[C@@H]12 [OBETICHOLIC ACID] | > 30 |

Target: Gamma-aminobutyric acid receptor subunit alpha-1 (Rattus norvegicus, UniProt P62813)
Sequence (P62813 whole entry): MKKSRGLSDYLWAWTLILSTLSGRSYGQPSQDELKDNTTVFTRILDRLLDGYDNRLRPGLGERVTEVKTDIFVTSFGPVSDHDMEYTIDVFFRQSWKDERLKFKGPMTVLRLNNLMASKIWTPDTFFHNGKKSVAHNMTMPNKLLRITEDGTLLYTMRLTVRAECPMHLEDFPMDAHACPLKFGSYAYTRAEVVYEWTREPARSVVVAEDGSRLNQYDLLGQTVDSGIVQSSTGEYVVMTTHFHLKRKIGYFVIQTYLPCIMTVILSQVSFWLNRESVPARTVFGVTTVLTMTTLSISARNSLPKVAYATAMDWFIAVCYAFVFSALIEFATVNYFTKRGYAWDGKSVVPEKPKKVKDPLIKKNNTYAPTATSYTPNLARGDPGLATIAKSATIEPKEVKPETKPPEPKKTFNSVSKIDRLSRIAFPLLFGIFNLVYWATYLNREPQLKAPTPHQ

| SMILES | AC50 [µM] |
| --- | --- |
| C[N+](C)(C)CCO [CHOLINE] | > 30 |
| CN(C)S(=O)(=O)c1ccc2c(c1)N(CCCN1CCC(CCO)CC1)c1ccccc1S2 [PIPOTIAZINE] | > 30 |
| CCC(=O)NCC[C@@H]1CCc2ccc3c(c21)CCO3 [RAMELTEON] | > 30 |
| CN(C)CCn1nnnc1SCC1=C(C(=O)O)N2C(=O)[C@@H](NC(=O)Cc3csc(N)n3)[C@H]2SC1 [CEFOTIAM] | > 30 |
| Cc1cc(C#N)cc(C)c1Oc1nc(Nc2ccc(C#N)cc2)nc(N)c1Br [ETRAVIRINE] | > 30 |
| CCOC(=O)[C@H](CCc1ccccc1)N[C@@H](C)C(=O)N1[C@H](C(=O)O)C[C@H]2CCCC[C@@H]21 [TRANDOLAPRIL] | > 30 |
| CN(C)CC(c1ccc(O)cc1)C1(O)CCCCC1 (stereo not drawn) [DESVENLAFAXINE] | > 30 |
| COCc1c(C(C)C)nc(C(C)C)c(/C=C/[C@@H](O)C[C@@H](O)CC(=O)O)c1-c1ccc(F)cc1 [CERIVASTATIN] | > 30 |
| CC1(C)NC(=O)N(c2ccc([N+](=O)[O-])c(C(F)(F)F)c2)C1=O [NILUTAMIDE] | > 30 |
| CCC1=C(C)CN(C(=O)NCCc2ccc(S(=O)(=O)NC(=O)N[C@H]3CC[C@H](C)CC3)cc2)C1=O [GLIMEPIRIDE] | > 30 |
| CCc1oc2ccccc2c1C(=O)c1cc(I)c(O)c(I)c1 [BENZIODARONE] | 17.1 |
| CN(C)[C@@H](c1cccc(O)c1)[C@H]1CCCC[C@H]1O [CIRAMADOL] | > 30 |
| CC(C)Nc1ncccn1 [ISAXONINE] | > 30 |
| COCCCN1CCC(NC(=O)c2cc(Cl)c(N)c3c2OCC3)CC1 [PRUCALOPRIDE] | > 30 |
| O=C(Cc1ccc(-c2ccccc2)cc1)Nc1ccccn1 [DIFENPIRAMIDE] | > 30 |
| N[C@@H](C(=O)N[C@@H]1C(=O)N2C(C(=O)O)=C(Cl)CC[C@H]12)c1ccccc1 [LORACARBEF ANHYDROUS] | > 30 |

Target: 5-hydroxytryptamine receptor 2B (Homo sapiens, UniProt P41595)
Sequence (P41595 whole entry): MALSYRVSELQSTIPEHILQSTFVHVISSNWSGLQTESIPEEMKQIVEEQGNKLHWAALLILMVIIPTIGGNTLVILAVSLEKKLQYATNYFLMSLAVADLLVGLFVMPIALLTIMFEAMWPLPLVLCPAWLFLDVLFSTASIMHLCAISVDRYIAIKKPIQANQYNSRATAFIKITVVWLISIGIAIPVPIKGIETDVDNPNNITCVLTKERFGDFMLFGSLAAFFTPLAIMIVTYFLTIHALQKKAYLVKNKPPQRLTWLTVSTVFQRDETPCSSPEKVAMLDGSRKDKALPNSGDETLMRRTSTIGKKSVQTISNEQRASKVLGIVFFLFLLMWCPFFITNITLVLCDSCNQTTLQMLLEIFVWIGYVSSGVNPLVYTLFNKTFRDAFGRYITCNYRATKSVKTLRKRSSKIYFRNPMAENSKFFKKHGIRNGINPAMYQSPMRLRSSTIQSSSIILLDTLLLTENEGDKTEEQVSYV

| AC50 [µM] | SMILES |
| --- | --- |
| > 10 | CN1C(C(=O)Nc2ccccn2)=C(O)c2sc(Cl)cc2S1(=O)=O [LORNOXICAM] |

Target: T2, Alpha-2A adrenergic receptor (Homo sapiens, UniProt P08913)
T2 sequence (P08913 whole entry): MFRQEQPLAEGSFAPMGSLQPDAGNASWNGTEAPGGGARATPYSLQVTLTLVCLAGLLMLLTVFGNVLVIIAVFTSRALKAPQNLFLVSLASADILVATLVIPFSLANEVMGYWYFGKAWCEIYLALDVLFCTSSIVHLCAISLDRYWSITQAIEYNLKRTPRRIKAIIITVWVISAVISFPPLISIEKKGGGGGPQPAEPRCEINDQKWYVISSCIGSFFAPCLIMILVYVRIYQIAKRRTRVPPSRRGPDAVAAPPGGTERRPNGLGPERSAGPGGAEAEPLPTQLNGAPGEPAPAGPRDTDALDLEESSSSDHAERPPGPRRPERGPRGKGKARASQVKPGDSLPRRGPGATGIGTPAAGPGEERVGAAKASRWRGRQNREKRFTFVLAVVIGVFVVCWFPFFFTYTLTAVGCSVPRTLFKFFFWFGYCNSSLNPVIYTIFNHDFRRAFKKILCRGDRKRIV

| AC50 [µM] | SMILES |
| --- | --- |
| 13 | COc1ccccc1OCC(O)CN1CCN(CC(=O)Nc2c(C)cccc2C)CC1 (stereo not drawn) [RANOLAZINE] |
